Laboratory results as given in patent US11434258B2, “Compounds (immunorhelins)” (ISR IMMUNE SYSTEM REGULATION HOLDING AB (PUBL), priority 2017, dated 2022).
Non-standard residues stand in square brackets, D forms with d. Residues, ends and D or L forms follow the SMILES beside them. *: point of attachment. d2Nal = N[C@H](Cc1ccc2ccccc2c1)C(=O)O; pGlu = O=C1CC[C@@H](C(=O)O)N1; tBu = CC(C)(C)*

How the values were obtained:
GnRHR = molecular target: T1, GnRHR (Homo sapiens, UniProt P30968); assay: Calcium assay in CHO-K1 cells (Genscript), FLIPR; format: cell-based; conditions: CHO-K1/GnRHR/Ga15 cells, relative to agonist control, read-out: GNRHR Stimulation at 1 μM
T1 construct: host or cells: CHO-K1 (CHO-K1/GnRHR/Ga15)
T1 sequence (P30968 1-328): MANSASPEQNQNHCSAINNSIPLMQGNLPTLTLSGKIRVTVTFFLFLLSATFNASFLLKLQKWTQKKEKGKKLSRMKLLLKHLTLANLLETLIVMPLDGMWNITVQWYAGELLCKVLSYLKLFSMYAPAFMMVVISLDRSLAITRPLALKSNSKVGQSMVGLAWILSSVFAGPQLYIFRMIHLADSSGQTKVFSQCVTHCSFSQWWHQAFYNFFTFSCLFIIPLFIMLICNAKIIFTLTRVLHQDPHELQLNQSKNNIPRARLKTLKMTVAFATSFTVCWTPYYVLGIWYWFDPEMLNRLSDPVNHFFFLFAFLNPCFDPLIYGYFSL
Experimental: Test article sample solutions were dissolved in HBSS buffer (with 20 mM HEPES buffer, pH 7.4) to form the 5× working solution. FLIPR® Calcium 4 assay kit from Molecular devices (R8141) was used as required. In brief, CHO-K1 cells expressing GnRHR (CHO-K1/GnRHR/Ga15, Genscript accession NM_000406) were respectively cultured in the 10-cm dishes and maintained at 37° C./5% CO2. CHO-K1 cells expressing GNRHR were respectively seeded in a 384-well black-wall, clear-bottom plate at a density of 15,000 cells per well in 20 μl of growth medium about 18 hours prior to the day of experiment and maintained at 37° C./5% CO2. Then, 20 μl of dye loading solution was added into the wells and the plates were subsequently placed into a 37° C. incubator for 60 minutes, followed by a 15 minutes' incubation at room temperature. At last, 10 μl of compounds or control agonist were added into respective wells of the assay plate during reading in FLIPR. The plate containing 5× compound and control agonist solution was placed in FLIPR. Solutions were added into the cell plate automatically at the 20 seconds and the fluorescence signal was monitored for an additional 100 seconds (21 sec to 120 sec.). Data were recorded by ScreenWorks (version 3.1) as FMD files with FLIPR and stored on the GenScript computer network for off-line analysis. Data acquisition and analyses was performed using ScreenWorks (version 3.1) program and exported to Excel. The average value of the first 20 seconds' reading was calculated as the baseline and the relative fluorescent units (ΔRFU) intensity values were calculated by subtracting the average value of baseline from the maximum fluorescent units (21 s to 120 s).
The % Stimulation was calculated with the following equation: % Stimulation=(ΔRFUCompound−ΔRFUBackground)/(ΔRFUAgonist control−ΔRFUBackground)×100
Dose response curves were fitted with four-parameter-logistic-equation by the software GraphPad Prism 6.
Equation: four parameter logistic equation. Y=Bottom+(Top-Bottom)/(1+10^((Log EC50−X)×Hillslope))
X is the logarithm of concentration. Y is the response.

[1] = Stability in aqueous media (PBS pH 7.4); format: physicochemical; parameters: unit not given here; conditions: phosphate buffer solution (PBS); PBS pH 7.4, 37° C., samples at T=0, 4, 24, 96 h; read-out: Stability grading (t1/2)
Text: LC/MS data was collected for compound identity.

Row | Compound | activation at 1 µM (GnRHR) [%] | half-life at 0.2 mg/ml [1]
1 | CCNC(=O)[C@@H]1CCCN1C(=O)[C@H](CCCNC(=N)N)NC(=O)[C@H](CC(C)C)NC(=O)[C@@H](COC(C)(C)C)NC(=O)[C@H](Cc1ccc(O)cc1)NC(=O)[C@H](CO)NC(=O)[C@H](Cc1c[nH]c2ccccc12)NC(=O)[C@H](Cc1cnc[nH]1)NC(=O)[C@@H]1CCC(=O)N1 [Buserelin, reference compound] | 94 | –
2 | CCNC(=O)[C@@H]1CCCN1C(=O)[C@H](CCCNC(=N)N)NC(=O)[C@H](Cc1c[nH]c2ccccc12)NC(=O)[C@@H](COC(C)(C)C)NC(=O)[C@H](Cc1ccc(O)cc1)NC(=O)[C@H](CO)NC(=O)[C@H](Cc1c[nH]c2ccccc12)NC(=O)[C@H](Cc1c[nH]cn1)NC(=O)[C@@H]1CCC(=O)N1 [Compound 8, pGlu-His-Trp-Ser-Tyr-D-Ser(tBu)-Trp-Arg-Pro-NHEt] ([pGlu]HWSY[dS](tBu)WRP-NHEt) | 86 | > 96
3 | CCNC(=O)[C@@H]1CCCN1C(=O)[C@H](Cc1ccc(O)cc1)NC(=O)[C@H](Cc1c[nH]c2ccccc12)NC(=O)[C@@H](COC(C)(C)C)NC(=O)[C@H](Cc1ccc(O)cc1)NC(=O)[C@H](CO)NC(=O)[C@H](Cc1c[nH]c2ccccc12)NC(=O)[C@H](Cc1c[nH]cn1)NC(=O)[C@@H]1CCC(=O)N1 [Compound 12, pGlu-His-Trp-Ser-Tyr-D-Ser(tBu)-Trp-Tyr-Pro-NHEt] ([pGlu]HWSY[dS](tBu)WYP-NHEt) | 80 | > 96
4 | CCNC(=O)[C@@H]1CCCN1C(=O)[C@H](Cc1ccc(O)cc1)NC(=O)[C@H](Cc1c[nH]c2ccccc12)NC(=O)[C@@H](COC(C)(C)C)NC(=O)[C@H](Cc1c[nH]cn1)NC(=O)[C@H](CO)NC(=O)[C@H](Cc1c[nH]c2ccccc12)NC(=O)[C@H](Cc1c[nH]cn1)NC(=O)[C@@H]1CCC(=O)N1 [Compound 13, pGlu-His-Trp-Ser-His-D-Ser(tBu)-Trp-Tyr-Pro-NHEt] ([pGlu]HWSH[dS](tBu)WYP-NHEt) | 87 | > 96
5 | CC(C)C[C@H](NC(=O)[C@@H](Cc1c[nH]c2ccccc12)NC(=O)[C@H](Cc1ccc(O)cc1)NC(=O)[C@H](CO)NC(=O)[C@H](Cc1c[nH]c2ccccc12)NC(=O)[C@H](Cc1c[nH]cn1)NC(=O)[C@@H]1CCC(=O)N1)C(=O)N[C@@H](Cc1ccc(O)cc1)C(=O)N1CCC[C@H]1C(=O)NCC(N)=O [Compound 14, pGlu-His-Trp-Ser-Tyr-D-Trp-Leu-Tyr-Pro-Gly-amide] ([pGlu]HWSY[dW]LYPG-NH2) | 78 | > 96
6 | CC(C)C[C@H](NC(=O)[C@@H](Cc1c[nH]c2ccccc12)NC(=O)[C@H](Cc1c[nH]cn1)NC(=O)[C@H](CO)NC(=O)[C@H](Cc1c[nH]c2ccccc12)NC(=O)[C@H](Cc1c[nH]cn1)NC(=O)[C@@H]1CCC(=O)N1)C(=O)N[C@@H](Cc1ccc(O)cc1)C(=O)N1CCC[C@H]1C(=O)NCC(N)=O [Compound 16, pGlu-His-Trp-Ser-His-D-Trp-Leu-Tyr-Pro-Gly-amide] ([pGlu]HWSH[dW]LYPG-NH2) | 76 | > 96
7 | N=C(N)NCCC[C@H](NC(=O)[C@H](Cc1c[nH]c2ccccc12)NC(=O)[C@@H](Cc1c[nH]c2ccccc12)NC(=O)[C@H](Cc1c[nH]cn1)NC(=O)[C@H](CO)NC(=O)[C@H](Cc1c[nH]c2ccccc12)NC(=O)[C@H](Cc1c[nH]cn1)NC(=O)[C@@H]1CCC(=O)N1)C(=O)N1CCC[C@H]1C(=O)NCC(N)=O [Compound 20, pGlu-His-Trp-Ser-His-D-Trp-Trp-Arg-Pro-NHEt] | 75 | > 96
8 | CC(C)C[C@H](NC(=O)[C@@H](Cc1ccc2ccccc2c1)NC(=O)[C@H](Cc1ccc(O)cc1)NC(=O)[C@H](CO)NC(=O)[C@H](Cc1c[nH]c2ccccc12)NC(=O)[C@H](Cc1c[nH]cn1)NC(=O)[C@@H]1CCC(=O)N1)C(=O)N[C@@H](Cc1ccc(O)cc1)C(=O)N1CCC[C@H]1C(=O)NCC(N)=O [Compound 25, pGlu-His-Trp-Ser-Tyr-D-Nal-Leu-Tyr-Pro-Gly-amide] ([pGlu]HWSY[d2Nal]LYPG-NH2) | 82 | < 96
9 | CC(C)C[C@H](NC(=O)[C@@H](Cc1ccc2ccccc2c1)NC(=O)[C@H](Cc1c[nH]cn1)NC(=O)[C@H](CO)NC(=O)[C@H](Cc1c[nH]c2ccccc12)NC(=O)[C@H](Cc1c[nH]cn1)NC(=O)[C@@H]1CCC(=O)N1)C(=O)N[C@@H](Cc1ccc(O)cc1)C(=O)N1CCC[C@H]1C(=O)NCC(N)=O [Compound 28, pGlu-His-Trp-Ser-His-D-Nal-Leu-Tyr-Pro-Gly-amide] ([pGlu]HWSH[d2Nal]LYPG-NH2) | 95 | > 96
10 | NC(=O)CNC(=O)[C@@H]1CCCN1C(=O)[C@H](Cc1ccc(O)cc1)NC(=O)[C@H](Cc1c[nH]c2ccccc12)NC(=O)[C@@H](Cc1ccc2ccccc2c1)NC(=O)[C@H](Cc1c[nH]cn1)NC(=O)[C@H](CO)NC(=O)[C@H](Cc1c[nH]c2ccccc12)NC(=O)[C@H](Cc1c[nH]cn1)NC(=O)[C@@H]1CCC(=O)N1 [Compound 33, pGlu-His-Trp-Ser-His-D-Nal-Trp-Tyr-Pro-Gly-amide] ([pGlu]HWSH[d2Nal]WYPG-NH2) | 67 | < 96
11 | CCNC(=O)[C@@H]1CCCN1C(=O)[C@H](CCCNC(=N)N)NC(=O)[C@H](Cc1c[nH]c2ccccc12)NC(=O)[C@@H](CC(C)C)NC(=O)[C@H](Cc1ccc(O)cc1)NC(=O)[C@H](CO)NC(=O)[C@H](Cc1c[nH]c2ccccc12)NC(=O)[C@H](Cc1c[nH]cn1)NC(=O)[C@@H]1CCC(=O)N1 [Compound 44, pGlu-His-Trp-Ser-Tyr-D-Leu-Trp-Arg-Pro-NHEt] ([pGlu]HWSY[dL]WRP-NHEt) | 111 | > 96
12 | CCNC(=O)[C@@H]1CCCN1C(=O)[C@H](Cc1ccc(O)cc1)NC(=O)[C@H](CC(C)C)NC(=O)[C@@H](CC(C)C)NC(=O)[C@H](Cc1ccc(O)cc1)NC(=O)[C@H](CO)NC(=O)[C@H](Cc1c[nH]c2ccccc12)NC(=O)[C@H](Cc1c[nH]cn1)NC(=O)[C@@H]1CCC(=O)N1 [Compound 45, pGlu-His-Trp-Ser-Tyr-D-Leu-Leu-Tyr-Pro-NHEt] ([pGlu]HWSY[dL]LYP-NHEt) | 105 | > 96
13 | CCNC(=O)[C@@H]1CCCN1C(=O)[C@H](Cc1ccc(O)cc1)NC(=O)[C@H](CC(C)C)NC(=O)[C@@H](CC(C)C)NC(=O)[C@H](Cc1c[nH]cn1)NC(=O)[C@H](CO)NC(=O)[C@H](Cc1c[nH]c2ccccc12)NC(=O)[C@H](Cc1c[nH]cn1)NC(=O)[C@@H]1CCC(=O)N1 [Compound 48, pGlu-His-Trp-Ser-His-D-Leu-Leu-Tyr-Pro-NHEt] ([pGlu]HWSH[dL]LYP-NHEt) | 118 | > 96
14 | CC(C)C[C@H](NC(=O)CNC(=O)[C@H](Cc1ccc(O)cc1)NC(=O)[C@H](CO)NC(=O)[C@H](Cc1c[nH]c2ccccc12)NC(=O)[C@H](Cc1cnc[nH]1)NC(=O)[C@@H]1CCC(=O)N1)C(=O)N[C@@H](CCCNC(=N)N)C(=O)N1CCC[C@H]1C(=O)NCC(N)=O [Gonadorelin, reference compound] | 102 | –
15 | CC(C)C[C@H](NC(=O)[C@@H](COC(C)(C)C)NC(=O)[C@H](Cc1ccc(O)cc1)NC(=O)[C@H](CO)NC(=O)[C@H](Cc1c[nH]c2ccccc12)NC(=O)[C@H](Cc1cnc[nH]1)NC(=O)[C@@H]1CCC(=O)N1)C(=O)N[C@@H](CCCNC(=N)N)C(=O)N1CCC[C@H]1C(=O)NNC(N)=O [Goserelin] | 99 | –
16 | CCNC(=O)[C@@H]1CCCN1C(=O)[C@H](CCCNC(=N)N)NC(=O)[C@H](CC(C)C)NC(=O)[C@@H](CC(C)C)NC(=O)[C@H](Cc1ccc(O)cc1)NC(=O)[C@H](CO)NC(=O)[C@H](Cc1c[nH]c2ccccc12)NC(=O)[C@H](Cc1c[nH]cn1)NC(=O)[C@@H]1CCC(=O)N1 [Leuprorelin, reference compound] | 107 | –
17 | CC(C)C[C@H](NC(=O)[C@@H](Cc1ccc2ccccc2c1)NC(=O)[C@H](Cc1ccc(O)cc1)NC(=O)[C@H](CO)NC(=O)[C@H](Cc1c[nH]c2ccccc12)NC(=O)[C@H](Cc1c[nH]cn1)NC(=O)[C@@H]1CCC(=O)N1)C(=O)N[C@@H](CCCNC(=N)N)C(=O)N1CCC[C@H]1C(=O)NCC(N)=O [Nafarelin, reference compound] | 100 | –
